Key:
[1] = Cell viability (MTT) in Vero cells; conditions: African green monkey
HSV‐1 pUL15C = HSV‐1 pUL15C (Human herpesvirus 1, UniProt P04295); assay: HSV‐1 pUL15C nuclease inhibition enzymatic assay (32P‐labeled 33‐bp dsDNA substrate); format: biochemical; conditions: for inhibition at 50 µM: read-out: percentage inhibition of pUL15C nuclease activity at the highest concentration tested; for IC50: concentration required to inhibit by 50% the pUL15C nuclease activity, 37 °C, 1 mM MnCl2, 15 min
BALB/c mice = conditions: oral, five consecutive days, LN‐7 25, 50, 75 mg kg−1, acyclovir 50 mg kg−1, 12 days
Procedure: BALB/c mice were purchased from Charles River Laboratories Spain and maintained at the Animal Facility of the CBM (Madrid, Spain). The toxicity of the test compound LN‐7 was investigated in BALB/c mice dosed as a solution at 25, 50, and 75 mg kg^−1. The compound was formulated in 3% DMSO + 10% solutol HS‐15 + 87% double‐distilled water (20 mg mL^−1). Animals had free access to food and water throughout each study. […] Compounds were orally administered for five consecutive days. Animals were monitored daily for clinical signs (piloerection, lethargy, eye closure), body weight loss, and survival. Oral administration and symptom monitoring was performed by researchers that were aware of the treatment condition (group allocation) for each animal. […] Animals with score 4 were defined as the humane endpoint on which the animal must be euthanized. On day 12, mice were sacrificed and whole blood was obtained by cardiac puncture. Several parameters were analyzed to monitor renal, hepatic, and immunological basic profiles. Body weight was also monitored to exclude weight loss or lack of weight gain that would be indicative of toxicity.

HSV‐1 = HSV‐1 infection model in BALB/c mice; format: in vivo; conditions: for clinical symptoms of the infection / morbidity: oral LN‐7 75 mg kg−1 or acyclovir 50 mg kg−1; for survival: 8 days postinfection
[2] = tested on: ACV‐resistant HSV‐1 strain F‐TKGF; assay: Antiviral assay, ACV‐resistant HSV‐1 strain F‐TKGF in Vero cells; conditions: Human alphaherpesvirus 1, Vero, read-out: EC50 against ACV‐resistant strain F‐TKGF
[3] = Pharmacokinetics studies in rats; format: in vivo; conditions: male, Sprague-Dawley, plasma, rat
Procedure: Six male Sprague‐Dawley rats (180–200 g) were randomly divided into two groups to receive […] of LN‐7 at 2 mg kg^−1 (iv administration) or 10 mg kg^−1 (po administration). LN‐7 was dissolved in DMSO, and then diluted at a concentration of 1 mg mL^−1 in 3% DMSO, 10% solutol HS‐15, and 87% double‐distilled water for dosing. Rats were purchased from Beijing Vital River Laboratory Animal Technology Co., Ltd. (Qualification No. SCXK(SH) 2021‐0011). Animals were subjected to 12 h alternating light and dark cycles, ad libitum access to drinking water and food, and fasting for 12 h prior to the initiation of treatments. For the oral dose at 10 mg kg^−1, blood samples were collected at 0.083, 0.25, 0.5, 1, 2, 4, 6, 8, and 24 h postadministration. For the intravenous dose (at 2 mg kg^−1), blood samples were collected at 0.083, 0.25, 0.5, 1, 2, 4, 6, 8, and 24 h postadministration. Twenty µL of blood were mixed with a 200 µL solution of methanol:acetonitrile (1:1), vortexed for 5 min, and centrifuged (4000 rpm, 4 °C, 10 min) to obtain plasma within 30 min of sampling. The supernatant was analyzed by liquid chromatography–tandem mass spectrometry. Chromatographic separation was performed using an ACQUITY UPLC HSS T3 column (2.1 × 50 mm, 1.8 µm). […] Gradient elution was carried out at a flow rate of 0.8 mL min^−1. […] Mass spectrometric detection was performed with an electrospray ionization source operating in positive ion mode. Quantification was achieved using multiple reaction monitoring with the following transitions: m/z 403.15.
Pharmacokinetic parameters such as AUC, T 1/2, and C max were calculated with the WinNonlin software.

[4] = tested on: HSV‐2 strains G and Lovelace; assay: Antiviral assay, HSV‐2 strains G and Lovelace in Vero cells (viral titer, TCID50); conditions: 10 µM, 24 h post‐infection
[5] = tested on: recombinant HSV‐2 GFP strain; conditions: Human alphaherpesvirus 2, Vero, read-out: EC50 against recombinant HSV‐2 GFP strain
[6] = treatment after infection, days 0-3 p.i., LN‐7 75 mg kg−1, acyclovir 50 mg kg−1 or both

Chain of HSV‐1 pUL15C (P04295 471-735): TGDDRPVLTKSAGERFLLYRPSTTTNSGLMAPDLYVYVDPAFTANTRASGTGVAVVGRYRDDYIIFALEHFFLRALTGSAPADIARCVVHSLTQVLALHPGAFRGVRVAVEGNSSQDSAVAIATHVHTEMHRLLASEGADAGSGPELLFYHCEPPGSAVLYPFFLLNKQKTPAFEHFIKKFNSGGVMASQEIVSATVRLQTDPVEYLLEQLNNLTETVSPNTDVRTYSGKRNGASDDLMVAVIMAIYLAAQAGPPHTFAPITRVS

For `O=C1c2c(O)c(=O)ccn2N(Cc2ccc(-c3ccco3)cc2)[C@@H]2COCCN12` [Compound 16, (R)-12-(4-(furan-2-yl)benzyl)-7-hydroxy-3,4,12,12a-tetrahydro-1H-[1,4] oxazi no[3,4-c] pyrido[2,1-f] [1,2,4] triazine-6,8-dione], the CC50 at 24 h ([1]; Vero cells) was greater than 100 µM.

Work on `O=C1c2c(O)c(=O)ccn2N(Cc2ccc(-c3ccc([N+](=O)[O-])cc3)cc2)[C@@H]2COCCN12` [Compound 32] yielded an inhibition at 50 µM (HSV‐1 pUL15C) of 74.3% and an IC50 (HSV‐1 pUL15C) greater than 30 µM.

With `COc1ccc(-c2ccc(CN3[C@@H]4COCCN4C(=O)c4c(O)c(=O)ccn43)cc2)cc1` [Compound 33] the IC50 (HSV‐1 pUL15C) was 19.4 ± 1.3 µM.

Compound `O=C1c2c(O)c(=O)ccn2N(Cc2ccc(-c3ccc4[nH]ccc4c3)cc2)[C@@H]2COCCN12` [Compound 19] has an inhibition at 50 µM (HSV‐1 pUL15C) of 51.5% and an IC50 (HSV‐1 pUL15C) greater than 30 µM.

`O=C1c2c(O)c(=O)ccn2N(Cc2ccc(-c3ccc(F)cc3)cc2)[C@@H]2COCCN12` [Compound 30] gave a CC50 at 24 h ([1]; Vero cells) greater than 66.5 µM.

For `O=C(Nc1ccccc1)c1ccc(-c2ccc(CN3[C@@H]4COCCN4C(=O)c4c(O)c(=O)ccn43)cc2)cc1` [Compound 40], the inhibition at 50 µM (HSV‐1 pUL15C) was 42.7% and the IC50 (HSV‐1 pUL15C) was greater than 30 µM.

`O=C1c2c(O)c(=O)ccn2N(Cc2ccc(Cl)c(F)c2)[C@@H]2COCCN12` [Compound 10] gave a CC50 at 24 h ([1]; Vero cells) greater than 100 µM.

In the case of `O=C1c2c(O)c(=O)ccn2N(Cc2ccc3ccc4cccc5ccc2c3c45)[C@@H]2COCCN12` [Compound 12], the inhibition at 50 µM (HSV‐1 pUL15C) is reported as 65.4% and the IC50 (HSV‐1 pUL15C) is reported as greater than 30 µM.

With `Nc1nc2c(ncn2COCCO)c(=O)[nH]1` [Acyclovir (ACV), Acyclovir, reference compound] the CC50 at 24 h ([1]; Vero cells) was greater than 100 µM, the “toxic symptoms or mortality” value (BALB/c mice) was “did not show any toxic symptoms or mortality” and the “clinical symptoms of the infection / morbidity” value (HSV‐1; prophylactic setting) was “Clinical symptoms of the infection were observed”. The clinical symptoms (HSV‐1; [6]) was “clinical symptoms were alleviated”, the piloerection (HSV‐1; [6]) was “piloerection was observed” and the survival (HSV‐1; [6]) was “survived until the end of the experiment”. For the same compound, the EC50 [2] was greater than 20 µM.

Work on `CC(C)c1ccc(O)c(=O)c(O)c1` [β‐thujaplicinol, reference compound] yielded a CC50 at 24 h ([1]; Vero cells) greater than 100 µM.

With `O=C1c2c(O)c(=O)ccn2N(Cc2ccc(-c3ccc(Cl)cc3)cc2)[C@@H]2COCCN12` [Compound 31] the inhibition at 50 µM (HSV‐1 pUL15C) was 48.1% and the IC50 (HSV‐1 pUL15C) was greater than 30 µM.

Compound `COC(=O)OCOc1c2n(ccc1=O)N([C@@H]1c3ccccc3SCc3c1ccc(F)c3F)[C@@H]1COCCN1C2=O` [Baloxavir marboxil, reference compound] has a CC50 at 24 h [1] greater than 100 µM.

In the case of `O=C1c2c(O)c(=O)ccn2N(Cc2ccc(C(F)(F)F)cc2)[C@@H]2COCCN12` [Compound 7], the CC50 at 24 h ([1]; Vero cells) is reported as greater than 100 µM.

`O=C1c2c(O)c(=O)ccn2N([C@@H]2c3ccccc3SCc3c2ccc(F)c3F)[C@@H]2COCCN12` [Baloxavir acid, reference compound] showed a CC50 at 24 h [1] greater than 100 µM.

In the case of `O=C1c2c(O)c(=O)ccn2N(Cc2ccc(-c3ccccc3)cc2)[C@@H]2COCCN12` [Compound 17, (R)-12-([1,1'-biphenyl] -4-ylmethyl)-7-hydroxy-3,4,12,12a-tet rahydro-1H-[1,4] oxazino[3,4-c] pyrido[2,1-f] [1,2,4] triazine-6,8-dione], the CC50 at 24 h ([1]; Vero cells) is reported as 38.8 µM, the “toxic symptoms or mortality” value (BALB/c mice) is reported as “did not show any toxic symptoms or mortality” and the AUC(0-inf) ([3]; IV 2 mg/Kg) is reported as 1230 ± 182 ng·h/mL. The Cmax ([3]; IV 2 mg/Kg) was 782 ± 63.2 ng/mL, the Tmax ([3]; IV 2 mg/Kg) was 0.0833 h and the clearance ([3]; IV 2 mg/Kg) was 27.4 mL/min/kg. It also gave a half-life ([3]; IV 2 mg/Kg) of 6.24 ± 1.24 h, a Vd ([3]; IV 2 mg/Kg, read-out: Vz) of 15.1 ± 4.05 L/kg and an AUC(0-inf) ([3]; PO 10 mg/Kg) of 2980 ± 763 ng·h/mL. The Cmax ([3]; PO 10 mg/Kg) was 573 ± 152 ng/mL, the Tmax ([3]; PO 10 mg/Kg) was 2 h and the half-life ([3]; PO 10 mg/Kg) was 5.54 ± 0.676 h. For the same compound, the “HSV‐1 titers in lung, brain, olfactory bulb and spleen tissues” value (HSV‐1; prophylactic setting, oral LN‐7 75 mg kg−1, days −1 to 3 p.i., day 8 p.i.) was “decreased around one to two orders of magnitude”, the “clinical symptoms of the infection / morbidity” value (HSV‐1; prophylactic setting) was “morbidity was higher for the LN‐7‐treated animals” and the clinical symptoms (HSV‐1; [6]) was “clinical symptoms were alleviated”. The piloerection (HSV‐1; [6]) was “piloerection was observed”, the survival (HSV‐1; [6]) was “survived until the end of the experiment” and the “viral titers in tissues (lungs, brain, olfactory bulb, kidneys, spleen)” value (HSV‐1; treatment after infection, days 0-3 p.i., LN‐7 75 mg kg−1, acyclovir 50 mg kg−1 or both, day 8 p.i.) was “significant reductions in the viral titers in all analyzed tissues of treated mice, except for kidney tissue”. The “reduction in the viral titer” value [4] was “reduction of two orders of magnitude”, the EC50 [2] was 3.2 ± 0.3 µM and the EC50 [5] was 3.6 ± 1.8 µM.

Compound `O=C1c2c(O)c(=O)ccn2N(Cc2ccc(-c3ccc(OC(F)(F)F)cc3)cc2)[C@@H]2COCCN12` [Compound 34] has a CC50 at 24 h ([1]; Vero cells) greater than 52.8 µM.

From article PMC12622528, “Discovery of a Baloxavir‐Inspired Endonuclease Inhibitor That Prevents Herpes Simplex Virus 1 Replication in Cell Culture and In Vivo” (Advanced Science, 2025)
